One series deals with MCF7. Kind of series: Cytotoxicity against MCF7 cells. The following applies: human. It is filed as cell-based.
The test system of another series is NCI-H460. Briefly: Cytotoxicity against NCI-H460 cells. It is filed as cell-based. The settings on record: human.
For another series, the system named is SF-268. Kind of series: Cytotoxicity against SF268 cells. It is filed as functional, cell-based. The following applies: Homo sapiens.
In series [1] the test system is Saccharomyces cerevisiae. Kind of series: Cytotoxicity against Saccharomyces cerevisiae rad52. It counts as organism-based. The settings on record: in vivo.
For series [2], the system named is Saccharomyces cerevisiae. Briefly: Cytotoxicity against Saccharomyces cerevisiae rad52-ku80. The settings on record: in vivo. It counts as organism-based.
Series [3] has as its system Saccharomyces cerevisiae. Briefly: Cytotoxicity against Saccharomyces cerevisiae rad14. The settings on record: in vivo. It counts as organism-based.
Series [4] has as its system Saccharomyces cerevisiae. Kind of series: Cytotoxicity against Saccharomyces cerevisiae mec1-1. The following applies: in vivo. It counts as organism-based.
The test system of series [5] is Saccharomyces cerevisiae. Kind of series: Cytotoxicity against Saccharomyces cerevisiae rad53-11. It is filed as organism-based. The settings on record: in vivo.

Activity calls are given as the source filed them. The rule behind the calls is not given here.

For the molecule `COC(=O)Cc1cc(I)c(OC)c(I)c1`, the Activity entry in the series with MCF7 and in the series with NCI-H460 was “Not Active” each time. In the series with SF-268, the outcome was inactive.

On to `COC(=O)C(O)c1ccc(OC)c(I)c1` (stereo unspecified), for which the Activity entry with MCF7 and in the series on NCI-H460 was “Not Active” throughout. The outcome in the series with SF-268 was inactive.

For the molecule `COC(=O)C(c1ccc(OC)c(I)c1)N1C(=O)c2ccccc2C1=O` (stereo unspecified), the Activity entry in the series on MCF7 and with NCI-H460 was “Not Active” each time. Further, the outcome in the series with SF-268 was inactive.

With `COC(=O)Nc1ccc(C(NC(=O)c2ccccc2)C(=O)O)cc1I` (stereo unspecified), the Activity entry with MCF7 and in the series on NCI-H460 was “Not Active” throughout. In addition, in the series on SF-268, the result was inactive.

Take `COC(=O)C(Sc1ccccc1)c1ccc(OC)c(I)c1` (stereo unspecified): the Activity entry in the series on MCF7 and with NCI-H460 was “Not Active” throughout. Moreover, the outcome in the series with SF-268 was inactive.

Take `COC(=O)C(NC(=O)c1ccccc1)c1ccc(OC)c(I)c1` (stereo unspecified): the outcome with Saccharomyces cerevisiae [1], in the series with Saccharomyces cerevisiae [2], in the series with Saccharomyces cerevisiae [3], in the series with Saccharomyces cerevisiae [4], in the series on Saccharomyces cerevisiae [5] and in the series on MCF7 was Active. Further, the result in the series on NCI-H460 was Active. Besides, the result in the series on SF-268 was Active.

As to `COC(=O)Cc1ccc(OC)c(I)c1`, the Activity entry in the series with MCF7 and with NCI-H460 was “Not Active” throughout. Also, in the series on SF-268, the outcome was inactive.

For `COC(=O)C(OC(C)=O)c1ccc(OC)c(I)c1` (stereo unspecified), the Activity entry in the series on MCF7 and in the series on NCI-H460 was “Not Active” in each case. Also, the result in the series on SF-268 was inactive.

On to `O=C(NC(C(=O)O)c1ccc(O)c(I)c1)c1ccccc1` (stereo unspecified), for which the Activity result in the series with MCF7 and with NCI-H460 was “Not Active” in each case. Besides, the result in the series with SF-268 was inactive.

For the molecule `CC(C)(C)[Si](Oc1ccc(C(NC(=O)c2ccccc2)C(=O)O)cc1I)(c1ccccc1)c1ccccc1` (stereo unspecified), the result in the series on MCF7 and in the series with NCI-H460 was Active. Besides, the outcome with SF-268 was Active.

Regarding `COC(=O)C(NC(=O)c1ccccc1)c1ccc(OC)c(Br)c1` (stereo unspecified), the outcome in the series on Saccharomyces cerevisiae [1], with Saccharomyces cerevisiae [2], with Saccharomyces cerevisiae [3], with Saccharomyces cerevisiae [4] and with Saccharomyces cerevisiae [5] was Active.

Take `COc1ccc(C(O)C(=O)O)cc1I` (stereo unspecified): the Activity result with MCF7 and with NCI-H460 was “Not Active” in each case. Also, in the series on SF-268, the outcome was inactive.

`COc1ccc(C(OC(C)=O)C(=O)O)cc1I` (stereo unspecified): the Activity result in the series with MCF7 and with NCI-H460 was “Not Active” in each case. The outcome in the series on SF-268 was inactive.

Source of the values: ChEMBL document CHEMBL1145294, “Genotoxic activity of halogenated phenylglycine derivatives” (Bioorg Med Chem Lett, 2006).
